These are literature values, as cited in patent US11395831B2, “Combination products of tobramycin compounds and dexameihasone compounds” (Somerset Therapeutics, LLC, priority 2020, dated 2022).

≈ marks a conversion by molar mass, not a printed value.

Regarding `NC[C@H]1O[C@H](O[C@H]2[C@H](O)[C@@H](O[C@H]3O[C@H](CO)[C@@H](O)[C@H](N)[C@H]3O)[C@H](N)C[C@@H]2N)[C@H](N)C[C@@H]1O` [tobramycin, 0-{3-amino-3-deoxy-α-D-gluco-pyranosyl-(1→4)}-0-{2,6-diamino-2,3,6-trideoxy-α-D-ribohexo-pyranosyl-(1→6)}-2-deoxystreptamine], the solubility in water is recorded as 94 mg/mL (≈ 201 mM).
